Source: patent US6852531B2, “Compositions and methods for reproducing and modulating mammalian messenger RNA decapping” (University of Medicine & Dentistry of NJ, priority 2000, dated 2005)
Values belong to the compound of their own block, whether it stands above or below them.

What was measured:
[1] = biological target: T1, 24 kDa cap binding protein (eIF4E) (Homo sapiens, UniProt P06730); experiment: UV cross-linking of cap-labeled RNA to cap-binding proteins
T1 construct: endogenous in cells; host or cells: HeLa spinner cells, S100 cytoplasmic extract
T1 sequence (P06730 whole entry): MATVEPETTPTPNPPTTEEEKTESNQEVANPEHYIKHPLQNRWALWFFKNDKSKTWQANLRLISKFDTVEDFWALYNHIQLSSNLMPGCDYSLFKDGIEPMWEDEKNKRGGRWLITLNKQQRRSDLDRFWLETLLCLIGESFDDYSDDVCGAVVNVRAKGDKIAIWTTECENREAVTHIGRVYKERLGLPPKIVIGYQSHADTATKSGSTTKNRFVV
Protocol: (§1) UV cross-linking analysis was performed as described (Wilusz and Shenk, 1988). Briefly, 20-50 fmoles of cap-radiolabeled RNA was incubated in the in vitro decapping assay for 5 min. and then reaction mixtures were irradiated on ice for 10 min. using a 15W germicidal light. RNases A and T1 were added and proteins covalently attached to short radioactive RNA oligomers were analyzed on a 10% acrylamide gel containing SDS. For analysis of UV cross-linked DAN/PARN protein by immunoprecipitation using a polyclonal antibody obtained from M. Wormington (Korner et al., 1998), 400 ul of NET2 buffer (50 mM Tris pH 7.6, 150 mM NaCl, 0.01% NP40) was added to reaction mixtures following RNase treatment and reaction mixtures were centrifuged for 4 min. Pre-cleared samples were incubated on ice with 2-5 microliters of specified rabbit polyclonal antisera for 1 hr. Antigen antibody complexes were collected on protein A-positive Staphylococcus aureus cells, washed five times in RIPA buffer (50 mM Tris, pH 7.6, 150 mM NaCl, 0.1% SDS, 1% NP40, 0.5% deoxycholate), and immunoprecipitated cross-linked proteins were analyzed on a 10 or 15% acrylamide gel containing SDS.

deadenylase DAN/PARN = biological target: T2, deadenylase DAN/PARN (Homo sapiens, UniProt O95453); experiment: UV cross-linking / immunoprecipitation of DAN/PARN; type: binding
T2 construct: incubated HeLa S100 extracts using cap-labeled GemARE-A60 RNA under decapping conditions; endogenous in cells; host or cells: HeLa spinner cells, S100 cytoplasmic extract
T2 sequence (O95453 1-639): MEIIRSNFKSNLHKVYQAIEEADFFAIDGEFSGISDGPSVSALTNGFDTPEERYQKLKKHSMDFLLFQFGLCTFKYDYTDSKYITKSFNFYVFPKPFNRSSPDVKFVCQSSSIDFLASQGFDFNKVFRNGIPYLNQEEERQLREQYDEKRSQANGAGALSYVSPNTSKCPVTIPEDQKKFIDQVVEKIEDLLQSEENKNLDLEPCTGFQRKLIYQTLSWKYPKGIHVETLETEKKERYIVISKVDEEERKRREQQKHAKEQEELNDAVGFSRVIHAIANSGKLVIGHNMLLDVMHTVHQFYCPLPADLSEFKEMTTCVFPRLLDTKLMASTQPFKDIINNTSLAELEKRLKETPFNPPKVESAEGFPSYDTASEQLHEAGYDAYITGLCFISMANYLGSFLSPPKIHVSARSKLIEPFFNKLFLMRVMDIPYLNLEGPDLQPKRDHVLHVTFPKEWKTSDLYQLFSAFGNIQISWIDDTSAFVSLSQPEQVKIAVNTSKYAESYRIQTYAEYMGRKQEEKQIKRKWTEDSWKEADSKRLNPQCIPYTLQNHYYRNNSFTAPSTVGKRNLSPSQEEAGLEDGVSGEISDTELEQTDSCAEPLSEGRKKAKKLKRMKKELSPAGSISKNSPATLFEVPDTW
Protocol: as §1

[2] = test system: decapping activity in HeLa S100 cytoplasmic extract; experiment: In vitro decapping assay (release of 7meGDP from cap-labeled RNA, TLC); type: biochemical, human; details: for activation of decapping in human cytoplasmic extract: cold cap analog added to standard S100 extract; for effect of competitor RNA on decapping of AU-rich element-containing RNA substrate: FIG. 6
Protocol: In one embodiment of a manual procedure, the components are as follows (referred to herein as “standard reaction conditions”): • 1 microliter ^7meGpppG or ^7meGTP competitor (50-500 ng/microliter); • 1 microliter RNA (˜5-200 fmol; labeled at the alpha phosphate of the cap); • 4 microliters S100 extract; and • 4 microliters water.
The mixture is incubated at 30° C. for 30 min; aliquots are then taken at designated time points to follow the kinetics of decapping by visualization of the product of decapping, ^7meGDP, by, for example, thin layer chromatography on a cellulose PEI sheet using a mobile phase of 0.45 M ammonium sulfate. Other means for identifying the decapping product are fully embraced herein.
Decapping assays were performed using conditions adapted from Zhang et al (1999b). 10-50 fmoles of cap-labeled RNAs were incubated with 4 microliters HeLa S100 cytoplasmic extract in a 10 microliter reaction in the presence of CE buffer (50 mM Tris pH 7.9, 30 mM (NH4)2SO4, 1 mM MgCl2) and 20 micromolar cap analog (where indicated). Reaction mixtures were incubated at 30° C. for the times indicated and stopped by the addition of 1 microliter of 0.25 M EDTA. Reaction products were separated and identified by thin layer chromatography on PEI cellulose sheets developed in 450 mM (NH4)2SO4. Quantitation was performed using a Molecular Dynamics Phosphorimager. Twenty micrograms of ^7meGMP and ^7meGDP were routinely spotted on TLC plates along with reaction samples to serve as markers that could be visualized by UV shadowing.

[3] = test system: unidentified 40 kDa species (ARE-specific RNA binding protein); experiment: UV cross-linking of ARE-binding proteins with ARE competitor RNA; parameters: species or system human; details: S100 extract
Protocol: as §1

HuR = biological target: T3, HuR (Homo sapiens, UniProt Q15717); experiment: as above; details: S100 extract
T3 construct: endogenous in cells; host or cells: HeLa spinner cells, S100 cytoplasmic extract
T3 sequence (Q15717 whole entry): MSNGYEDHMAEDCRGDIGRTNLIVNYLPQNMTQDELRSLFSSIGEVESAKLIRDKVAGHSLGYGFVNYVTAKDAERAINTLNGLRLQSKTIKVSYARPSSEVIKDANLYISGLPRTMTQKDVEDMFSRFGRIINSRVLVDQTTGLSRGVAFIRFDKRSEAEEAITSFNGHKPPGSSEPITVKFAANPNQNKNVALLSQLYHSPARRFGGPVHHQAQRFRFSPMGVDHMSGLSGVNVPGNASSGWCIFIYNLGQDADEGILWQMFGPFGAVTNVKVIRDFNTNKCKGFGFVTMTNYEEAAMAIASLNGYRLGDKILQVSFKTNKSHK
Protocol: as §1

[4] = 5 micromolar cap analog, FIG. 2D
[5] = titration, GemARE-A0 RNA, FIG. 2D

sequestration of 24 kDa cap binding protein [1, 4]: fully sequestered | competition for cross-linking of 24 kDa protein to cap ([1]; increasing amounts, HeLa S100, FIG. 2B): specifically competed | full sequestration of DAN/PARN (deadenylase DAN/PARN; [4]): not | competition for cap binding by DAN/PARN (deadenylase DAN/PARN; FIG. 2C): specifically competed | amount required to fully sequester DAN/PARN (deadenylase DAN/PARN; FIG. 2D): 10 µM
Compound: Cn1c[n+]([C@@H]2O[C@H](COP(=O)(O)OP(=O)(O)OP(=O)(O)OC[C@H]3O[C@@H](n4cnc5c(=O)[nH]c(N)nc54)[C@H](O)[C@@H]3O)[C@@H](O)[C@H]2O)c2nc(N)[nH]c(=O)c21 [^7meGpppG]
activation of decapping of RNA substrates (accumulation of 7meGDP) ([2]; 20 micromolar, 3 independently prepared HeLa cytoplasmic extracts, FIG. 1B): activated decapping | activation of decapping in human cytoplasmic extract [2]: activates the human cytoplasmic extract | amount of cap analog giving only partial activation of decapping [2, 5]: 5 micromolar | amount of cap analog required for full activation of decapping [2, 5]: 10 micromolar

Compound: Cn1c[n+]([C@@H]2O[C@H](COP(=O)([O-])OP(=O)(O)OP(=O)(O)O)[C@@H](O)[C@H]2O)c2nc(N)[nH]c(=O)c21 [^7meGTP]
activation of decapping in human cytoplasmic extract [2]: activates the human cytoplasmic extract

Compound: 5′AUUAUUUAUUAUUUAUUUAUUAUUUAUUUAUUUA (RNA, backbone not given here) [ARE competitor RNA]
competition of 40 kDa species cross-linking [3]: competed | competition of HuR cross-linking (HuR): competed | substrate dependence of the reduction in decapping efficiency ([2]; Gem-A0 versus GemARE-A0, FIG. 6B): only observed with RNA substrates that contained an AU-rich element | effect of competitor RNA on decapping of AU-rich element-containing RNA substrate ([2]; with cap analog): significantly reduced decapping

Compound: 5′-GGAUUAACUAAUUGAUACCGCGUAUACACGCGG (RNA, backbone not given here) [control competitor RNA]
effect of competitor RNA on decapping of AU-rich element-containing RNA substrate ([2]; with cap analog): no effect on decapping efficiency

Compound: Nc1nc2c(ncn2[C@@H]2O[C@H](COP(=O)(O)OP(=O)(O)OP(=O)(O)OC[C@H]3O[C@@H](n4cnc5c(=O)[nH]c(N)nc54)[C@H](O)[C@@H]3O)[C@@H](O)[C@H]2O)c(=O)[nH]1 [GpppG]
ability of methylated versus non-methylated cap analogs to activate decapping ([2]; HeLa S100, cap-labeled GemARE-A60 RNA, FIG. 2A): the presence of the methyl group on the cap analog was absolutely required to activate decapping

Compound: poly(C)
effect of other homopolymer on decapping ([2]; all RNA substrates tested, with cap analog, FIG. 4B): did not appreciably affect decapping
